Measured values taken from article PMC4979471 (Cell Death Discovery, 2015).
Like-named read-outs stand apart in the source and are kept apart here.

What was measured:
Assay in all cases: Kinase selectivity, P33-radiolabeled assay
Format in all cases: biochemical
Conditions in all cases: 10 μM ATP
BMX/ETK = target: T1, BMX/ETK (Homo sapiens, UniProt P51813)
T1 construct: purchased Reaction Biology Corp
T1 sequence (P51813 1-675): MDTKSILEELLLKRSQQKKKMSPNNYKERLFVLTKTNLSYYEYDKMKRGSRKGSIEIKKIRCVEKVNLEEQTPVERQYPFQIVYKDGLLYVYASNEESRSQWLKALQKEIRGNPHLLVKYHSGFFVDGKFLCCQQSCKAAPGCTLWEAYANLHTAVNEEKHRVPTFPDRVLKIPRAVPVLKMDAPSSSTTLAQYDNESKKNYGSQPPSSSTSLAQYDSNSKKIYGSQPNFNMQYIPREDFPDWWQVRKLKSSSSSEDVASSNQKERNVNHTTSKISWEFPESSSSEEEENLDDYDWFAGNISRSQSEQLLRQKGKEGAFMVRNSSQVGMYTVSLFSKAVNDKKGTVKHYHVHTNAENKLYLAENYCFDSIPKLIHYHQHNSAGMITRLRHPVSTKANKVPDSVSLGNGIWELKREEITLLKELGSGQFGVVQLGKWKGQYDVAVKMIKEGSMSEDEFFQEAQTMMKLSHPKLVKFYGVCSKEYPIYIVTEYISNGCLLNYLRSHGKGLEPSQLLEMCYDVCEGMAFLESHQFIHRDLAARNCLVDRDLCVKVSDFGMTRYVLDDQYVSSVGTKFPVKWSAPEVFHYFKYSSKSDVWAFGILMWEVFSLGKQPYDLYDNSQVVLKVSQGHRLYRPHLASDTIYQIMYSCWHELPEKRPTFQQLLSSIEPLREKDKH
Method in brief: (§1)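 Percent residual kinase activity versus DMSO is reported. Conditions: compound at 10 μM, ATP at 10 μM, n = 2.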

ERBB4/HER4 = target: T2, ERBB4/HER4 (Homo sapiens, UniProt Q15303)
T2 construct: purchased Reaction Biology Corp
Method in brief: as §1

CK1d = target: T3, CK1d (Homo sapiens, UniProt P48730)
T3 construct: purchased Reaction Biology Corp
Method in brief: as §1

HIPK2 = target: T4, HIPK2 (Homo sapiens, UniProt Q9H2X6)
T4 construct: purchased Reaction Biology Corp
Method in brief: as §1

MST4 = target: T5, MST4 (Homo sapiens, UniProt Q9P289)
T5 construct: purchased Reaction Biology Corp
Method in brief: as §1

IRR/INSRR = target: T6, IRR/INSRR (Homo sapiens, UniProt P14616)
T6 construct: purchased Reaction Biology Corp
Method in brief: as §1

TNIK = target: T7, TNIK (Homo sapiens, UniProt Q9UKE5)
T7 construct: purchased Reaction Biology Corp
Method in brief: as §1

CDK3/cyclin E = target: T8, CDK3/cyclin E (Homo sapiens, UniProt Q00526)
T8 construct: purchased Reaction Biology Corp
Method in brief: as §1

MARK4 = target: T9, MARK4 (Homo sapiens, UniProt Q96L34)
T9 construct: purchased Reaction Biology Corp
T9 sequence (Q96L34 1-752): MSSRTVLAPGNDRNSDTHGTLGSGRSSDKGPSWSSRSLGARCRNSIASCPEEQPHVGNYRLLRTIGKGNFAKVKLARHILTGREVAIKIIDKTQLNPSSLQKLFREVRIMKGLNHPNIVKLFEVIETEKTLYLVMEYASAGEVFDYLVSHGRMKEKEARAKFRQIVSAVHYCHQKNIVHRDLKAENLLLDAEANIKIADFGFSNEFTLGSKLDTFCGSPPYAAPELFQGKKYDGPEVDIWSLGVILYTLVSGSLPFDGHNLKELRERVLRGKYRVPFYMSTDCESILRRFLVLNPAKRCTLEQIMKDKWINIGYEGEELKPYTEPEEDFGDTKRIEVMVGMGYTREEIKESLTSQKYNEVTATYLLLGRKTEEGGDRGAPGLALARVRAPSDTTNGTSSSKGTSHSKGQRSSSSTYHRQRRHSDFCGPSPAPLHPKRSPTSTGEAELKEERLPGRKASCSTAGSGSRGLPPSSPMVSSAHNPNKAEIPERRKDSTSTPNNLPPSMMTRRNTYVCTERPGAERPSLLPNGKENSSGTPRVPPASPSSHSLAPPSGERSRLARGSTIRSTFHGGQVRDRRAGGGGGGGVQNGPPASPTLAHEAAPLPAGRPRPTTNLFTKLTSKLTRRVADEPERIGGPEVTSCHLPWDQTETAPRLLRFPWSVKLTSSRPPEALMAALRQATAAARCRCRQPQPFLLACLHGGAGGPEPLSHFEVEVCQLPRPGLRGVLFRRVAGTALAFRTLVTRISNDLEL
Method in brief: as §1

JNK1 = target: T10, JNK1 (Homo sapiens, UniProt P45983)
T10 construct: purchased Reaction Biology Corp
Method in brief: as §1

[1] = read-out: % Enzyme Activity (relative to DMSO controls) AVG
[2] = read-out: % Enzyme Activity (relative to DMSO controls) Data 1
[3] = read-out: % Enzyme Activity (relative to DMSO controls) Data 2

T10 sequence (P45983 whole entry): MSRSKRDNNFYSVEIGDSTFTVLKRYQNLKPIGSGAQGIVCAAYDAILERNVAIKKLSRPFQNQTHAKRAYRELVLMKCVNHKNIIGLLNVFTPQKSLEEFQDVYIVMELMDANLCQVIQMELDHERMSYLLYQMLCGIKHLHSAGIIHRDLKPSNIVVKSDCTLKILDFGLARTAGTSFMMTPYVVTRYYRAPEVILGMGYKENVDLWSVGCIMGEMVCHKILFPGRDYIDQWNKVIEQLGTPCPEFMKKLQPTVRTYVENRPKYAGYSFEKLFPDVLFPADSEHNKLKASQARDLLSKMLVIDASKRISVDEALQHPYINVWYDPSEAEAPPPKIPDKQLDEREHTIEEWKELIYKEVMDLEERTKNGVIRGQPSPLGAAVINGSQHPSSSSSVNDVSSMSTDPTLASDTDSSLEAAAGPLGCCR
T3 sequence (P48730 whole entry): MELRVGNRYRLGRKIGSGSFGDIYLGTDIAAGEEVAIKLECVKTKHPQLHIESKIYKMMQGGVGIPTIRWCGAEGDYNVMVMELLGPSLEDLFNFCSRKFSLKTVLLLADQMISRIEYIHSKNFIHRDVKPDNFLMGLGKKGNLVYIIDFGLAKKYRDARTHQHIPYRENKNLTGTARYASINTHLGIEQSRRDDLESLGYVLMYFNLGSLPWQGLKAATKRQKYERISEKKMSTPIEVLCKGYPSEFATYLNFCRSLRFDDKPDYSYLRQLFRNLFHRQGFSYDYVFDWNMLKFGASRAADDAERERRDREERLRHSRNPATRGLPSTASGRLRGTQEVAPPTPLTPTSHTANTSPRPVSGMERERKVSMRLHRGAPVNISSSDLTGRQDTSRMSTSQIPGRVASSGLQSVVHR
T4 sequence (Q9H2X6 whole entry): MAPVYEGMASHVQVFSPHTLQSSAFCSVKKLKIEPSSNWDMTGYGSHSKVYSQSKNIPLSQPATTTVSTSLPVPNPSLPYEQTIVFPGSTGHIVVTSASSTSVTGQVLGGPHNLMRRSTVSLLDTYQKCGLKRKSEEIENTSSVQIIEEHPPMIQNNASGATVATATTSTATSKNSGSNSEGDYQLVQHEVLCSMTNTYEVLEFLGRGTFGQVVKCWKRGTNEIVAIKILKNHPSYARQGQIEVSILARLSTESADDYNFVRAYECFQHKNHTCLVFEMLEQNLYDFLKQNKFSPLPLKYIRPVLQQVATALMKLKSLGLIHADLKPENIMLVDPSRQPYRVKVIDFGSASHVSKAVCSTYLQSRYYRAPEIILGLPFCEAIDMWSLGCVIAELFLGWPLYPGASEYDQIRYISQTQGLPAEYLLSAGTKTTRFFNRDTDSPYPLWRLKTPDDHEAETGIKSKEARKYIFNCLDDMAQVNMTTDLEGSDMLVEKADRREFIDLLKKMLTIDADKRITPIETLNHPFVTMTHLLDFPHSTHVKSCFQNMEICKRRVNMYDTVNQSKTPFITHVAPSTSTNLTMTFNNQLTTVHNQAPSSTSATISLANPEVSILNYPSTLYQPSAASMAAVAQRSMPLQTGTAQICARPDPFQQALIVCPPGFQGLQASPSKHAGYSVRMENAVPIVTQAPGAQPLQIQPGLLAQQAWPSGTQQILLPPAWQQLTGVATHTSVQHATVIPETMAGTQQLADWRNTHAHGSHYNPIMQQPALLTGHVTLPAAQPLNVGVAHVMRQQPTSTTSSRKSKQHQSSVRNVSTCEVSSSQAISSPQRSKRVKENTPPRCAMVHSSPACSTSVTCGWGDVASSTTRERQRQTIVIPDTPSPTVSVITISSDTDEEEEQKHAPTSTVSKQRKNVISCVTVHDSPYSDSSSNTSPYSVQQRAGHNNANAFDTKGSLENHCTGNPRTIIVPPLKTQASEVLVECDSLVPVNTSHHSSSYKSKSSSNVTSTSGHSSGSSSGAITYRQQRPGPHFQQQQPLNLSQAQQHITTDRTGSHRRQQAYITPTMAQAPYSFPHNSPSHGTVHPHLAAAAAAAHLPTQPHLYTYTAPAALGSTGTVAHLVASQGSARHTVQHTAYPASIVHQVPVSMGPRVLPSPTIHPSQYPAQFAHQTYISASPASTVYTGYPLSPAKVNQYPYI
T6 sequence (P14616 27-1297): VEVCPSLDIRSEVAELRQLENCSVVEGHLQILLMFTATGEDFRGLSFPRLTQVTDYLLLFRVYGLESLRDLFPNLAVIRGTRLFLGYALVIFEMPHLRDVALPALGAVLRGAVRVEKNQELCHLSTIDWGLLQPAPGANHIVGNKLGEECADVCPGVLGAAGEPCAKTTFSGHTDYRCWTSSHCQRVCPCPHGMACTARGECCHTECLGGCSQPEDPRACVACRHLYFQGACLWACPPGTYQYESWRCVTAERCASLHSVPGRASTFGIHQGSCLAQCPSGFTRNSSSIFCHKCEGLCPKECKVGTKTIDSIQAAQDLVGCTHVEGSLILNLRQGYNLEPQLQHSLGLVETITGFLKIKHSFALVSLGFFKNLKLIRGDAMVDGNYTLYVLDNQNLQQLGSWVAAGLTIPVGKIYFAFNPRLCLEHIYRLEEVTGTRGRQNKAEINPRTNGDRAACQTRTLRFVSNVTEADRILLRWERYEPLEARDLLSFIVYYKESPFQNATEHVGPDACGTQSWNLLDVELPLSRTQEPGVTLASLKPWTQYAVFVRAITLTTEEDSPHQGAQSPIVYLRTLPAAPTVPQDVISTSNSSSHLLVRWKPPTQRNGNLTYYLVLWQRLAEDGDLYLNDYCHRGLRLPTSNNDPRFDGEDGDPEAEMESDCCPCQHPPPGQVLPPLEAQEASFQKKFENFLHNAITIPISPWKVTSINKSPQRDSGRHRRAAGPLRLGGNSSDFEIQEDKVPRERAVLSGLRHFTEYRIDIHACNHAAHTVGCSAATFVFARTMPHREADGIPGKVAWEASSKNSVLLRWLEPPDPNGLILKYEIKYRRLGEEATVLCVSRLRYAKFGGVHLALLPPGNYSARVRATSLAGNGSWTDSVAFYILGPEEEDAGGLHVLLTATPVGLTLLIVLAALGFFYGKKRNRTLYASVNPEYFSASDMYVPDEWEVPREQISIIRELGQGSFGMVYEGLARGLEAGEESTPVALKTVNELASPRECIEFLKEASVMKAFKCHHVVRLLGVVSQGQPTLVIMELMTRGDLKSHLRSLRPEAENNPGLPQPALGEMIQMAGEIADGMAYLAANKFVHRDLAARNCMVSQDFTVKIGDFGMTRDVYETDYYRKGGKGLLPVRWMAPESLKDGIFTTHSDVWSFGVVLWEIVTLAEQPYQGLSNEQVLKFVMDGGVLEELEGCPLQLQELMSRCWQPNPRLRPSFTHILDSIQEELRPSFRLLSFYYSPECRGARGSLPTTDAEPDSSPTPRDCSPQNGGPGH
T8 sequence (Q00526 whole entry): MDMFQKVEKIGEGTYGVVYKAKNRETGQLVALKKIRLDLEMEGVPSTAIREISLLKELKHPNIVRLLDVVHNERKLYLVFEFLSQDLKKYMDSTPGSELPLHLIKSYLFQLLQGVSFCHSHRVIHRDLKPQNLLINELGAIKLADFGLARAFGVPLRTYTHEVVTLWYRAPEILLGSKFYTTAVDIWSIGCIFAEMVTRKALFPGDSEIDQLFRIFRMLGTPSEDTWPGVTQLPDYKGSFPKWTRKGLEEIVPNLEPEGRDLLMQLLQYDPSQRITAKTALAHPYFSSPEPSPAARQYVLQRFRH
T8 sequence (P24864 whole entry partner): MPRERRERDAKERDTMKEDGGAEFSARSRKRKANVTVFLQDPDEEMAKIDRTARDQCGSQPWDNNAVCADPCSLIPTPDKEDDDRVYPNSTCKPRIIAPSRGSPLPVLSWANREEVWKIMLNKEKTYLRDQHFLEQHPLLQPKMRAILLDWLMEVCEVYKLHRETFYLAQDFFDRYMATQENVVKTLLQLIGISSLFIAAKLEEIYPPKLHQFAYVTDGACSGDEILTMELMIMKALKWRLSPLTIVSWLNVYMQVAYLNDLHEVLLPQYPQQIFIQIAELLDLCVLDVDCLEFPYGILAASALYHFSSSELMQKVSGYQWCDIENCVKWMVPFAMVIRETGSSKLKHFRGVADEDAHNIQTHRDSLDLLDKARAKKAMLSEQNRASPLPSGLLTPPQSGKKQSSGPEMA
T5 sequence (Q9P289 whole entry): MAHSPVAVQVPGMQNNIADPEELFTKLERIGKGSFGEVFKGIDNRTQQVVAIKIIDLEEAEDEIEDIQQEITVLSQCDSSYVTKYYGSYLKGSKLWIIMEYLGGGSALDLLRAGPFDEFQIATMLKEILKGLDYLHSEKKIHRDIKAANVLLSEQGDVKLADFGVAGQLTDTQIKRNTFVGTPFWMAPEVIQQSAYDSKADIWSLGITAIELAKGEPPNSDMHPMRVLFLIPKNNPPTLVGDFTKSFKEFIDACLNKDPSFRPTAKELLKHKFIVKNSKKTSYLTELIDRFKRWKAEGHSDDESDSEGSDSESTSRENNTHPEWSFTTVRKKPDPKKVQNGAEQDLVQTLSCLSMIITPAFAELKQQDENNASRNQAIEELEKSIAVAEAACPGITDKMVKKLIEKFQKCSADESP

Question: `CC(C)(C)C(=O)N1N=CC[C@H]1c1ccccc1` [GSK′963] was tested. Which remaining activity at 10 µM (BMX/ETK; [1]) did it give?
Answer: 99.9%

Question: And the remaining activity at 10 µM (BMX/ETK; [2])?
Answer: 94.5%

Question: What about the remaining activity at 10 µM (BMX/ETK; [3]) of the same compound?
Answer: 105%

Question: What about the remaining activity at 10 µM (ERBB4/HER4; [1]) of the same compound?
Answer: 102%

Question: What about the remaining activity at 10 µM (ERBB4/HER4; [2]) of the same compound?
Answer: 101%

Question: What about the remaining activity at 10 µM (ERBB4/HER4; [3]) of the same compound?
Answer: 104%

Question: What about the remaining activity at 10 µM (CK1d; [1]) of the same compound?
Answer: 96.7%

Question: And the remaining activity at 10 µM (CK1d; [2])?
Answer: 94.1%

Question: And the remaining activity at 10 µM (CK1d; [3])?
Answer: 99.2%

Question: And the remaining activity at 10 µM (HIPK2; [1])?
Answer: 103%

Question: What about the remaining activity at 10 µM (HIPK2; [2]) of the same compound?
Answer: 101%

Question: And the remaining activity at 10 µM (HIPK2; [3])?
Answer: 104%

Question: And the remaining activity at 10 µM (MST4; [1])?
Answer: 104%

Question: And the remaining activity at 10 µM (MST4; [2])?
Answer: 103%

Question: And the remaining activity at 10 µM (MST4; [3])?
Answer: 105%

Question: What about the remaining activity at 10 µM (IRR/INSRR; [1]) of the same compound?
Answer: 75.3%

Question: And the remaining activity at 10 µM (IRR/INSRR; [2])?
Answer: 72.8%

Question: And the remaining activity at 10 µM (IRR/INSRR; [3])?
Answer: 77.7%

Question: And the remaining activity at 10 µM (TNIK; [1])?
Answer: 106%

Question: What about the remaining activity at 10 µM (TNIK; [2]) of the same compound?
Answer: 108%

Question: And the remaining activity at 10 µM (TNIK; [3])?
Answer: 104%

Question: What about the remaining activity at 10 µM (CDK3/cyclin E; [1]) of the same compound?
Answer: 106%

Question: What about the remaining activity at 10 µM (CDK3/cyclin E; [2]) of the same compound?
Answer: 105%

Question: And the remaining activity at 10 µM (CDK3/cyclin E; [3])?
Answer: 107%

Question: What about the remaining activity at 10 µM (MARK4; [1]) of the same compound?
Answer: 107%

Question: What about the remaining activity at 10 µM (MARK4; [2]) of the same compound?
Answer: 105%

Question: And the remaining activity at 10 µM (MARK4; [3])?
Answer: 109%

Question: And the remaining activity at 10 µM (JNK1; [1])?
Answer: 97.1%

Question: And the remaining activity at 10 µM (JNK1; [2])?
Answer: 97.3%

Question: What about the remaining activity at 10 µM (JNK1; [3]) of the same compound?
Answer: 97%
